# According to patent US10087192B2, “2-(het)aryl-substituted fused bicyclic heterocycle derivatives as pesticides” (BAYER CROPSCIENCE AKTIENGESELLSCHSAFT, priority 2015, dated 2018):
# Key:
# Assay type in all cases: in vivo
# Phaedon cochleariae = Phaedon cochleariae spray test; settings: after 7 days, larvae on Chinese cabbage leaf discs
# Description: Phaedon cochleariae—Spray Test
# Solvent: 78.0 parts by weight of acetone • • 1.5 parts by weight of dimethylformamide
# Emulsifier: alkylaryl polyglycol ether
# To produce a suitable preparation of active compound, 1 part by weight of active compound is dissolved using the stated parts by weight of solvent and made up with water containing an emulsifier concentration of 1000 ppm until the desired concentration is attained. To produce further test concentrations, the preparation is diluted with emulsifier-containing water.
# After 7 days, the efficacy in % is determined. 100% means that all the beetle larvae have been killed; 0% means that no beetle larvae have been killed.
# Myzus persicae = Myzus persicae spray test (Chinese cabbage leaf discs); settings: 500 g/ha, after 6 days
# Description: Myzus persicae—Spray Test Solvent: 78 parts by weight of acetone • • 1.5 parts by weight of dimethylformamide Emulsifier: alkylaryl polyglycol ether […] To produce further test concentrations, the preparation is diluted with emulsifier-containing water. Discs of Chinese cabbage leaves (Brassica pekinensis) infested by all stages of the green peach aphid (Myzus persicae) are sprayed with an active compound preparation of the desired concentration.
# Lucilia cuprina = Lucilia cuprina test; settings: 100 ppm, after 2 days, L1 larvae
# Description: (§1) Solvent: dimethyl sulphoxide
# (§2) To produce a suitable preparation of active compound, 10 mg of active compound are mixed with 0.5 ml of dimethyl sulphoxide, and the concentrate is diluted with water to the desired concentration.
# About 20 L1 larvae of the Australian sheep blowfly (Lucilia cuprina) are transferred into a test vessel containing minced horsemeat and the active compound preparation of the desired concentration.
# After 2 days, the kill in % is determined. 100% means that all the larvae have been killed; 0% means that no larvae have been killed.
# Ctenocephalides felis = Ctenocephalides felis oral test; settings: 100 ppm in citrated cattle blood, after 2 days
# From the text: Ctenocephalides felis—Oral Test Solvent: dimethyl sulphoxide […] Dilution with citrated cattle blood gives the desired concentration. About 20 unfed adult cat fleas (Ctenocephalides felis) are placed into a chamber which is closed at the top and bottom with gauze. A metal cylinder whose bottom end is closed with parafilm is placed onto the chamber. The cylinder contains the blood/active compound preparation, which can be imbibed by the fleas through the parafilm membrane.
# Spodoptera frugiperda = Spodoptera frugiperda spray test (maize leaf discs); settings: after 7 days, caterpillars on maize leaf discs
# Description: Spodoptera frugiperda—Spray Test Solvent: 78.0 parts by weight of acetone • • 1.5 parts by weight of dimethylformamide Emulsifier: alkylaryl polyglycol ether […] To produce further test concentrations, the preparation is diluted with emulsifier-containing water. Leaf discs of maize (Zea mays) are sprayed with an active compound preparation of the desired concentration and, after drying, populated with caterpillars of the armyworm (Spodoptera frugiperda).
# Musca domestica = Musca domestica test; settings: 100 ppm, after 2 days, adult houseflies
# Description: as §1, §2
# Vessels containing a sponge treated with sugar solution and the active compound preparation of the desired concentration are populated with 10 adult houseflies (Musca domestica).
# After 2 days, the kill in % is determined. 100% means that all of the flies have been killed; 0% means that none of the flies have been killed.
# Boophilus microplus = Boophilus microplus injection test; settings: 20 μg/animal, assessed after 7 days
# Description: Boophilus microplus—Injection Test
# as §1
# To produce a suitable preparation of active compound, 10 mg of active compound are mixed with 0.5 ml of solvent and the concentrate is diluted with solvent to the desired concentration.
# 1 μl of the active compound solution is injected into the abdomen of 5 engorged adult female cattle ticks (Boophilus microplus). The animals are transferred into dishes and kept in a climate-controlled room.
# Efficacy is assessed after 7 days by laying of fertile eggs. Eggs which are not visibly fertile are stored in a climate-controlled cabinet until the larvae hatch after about 42 days. An efficacy of 100% means that none of the ticks has laid any fertile eggs; 0% means that all the eggs are fertile.
SMILES,efficacy (Phaedon cochleariae; 500 g/ha),efficacy (Myzus persicae),efficacy (kill) (Lucilia cuprina),efficacy (kill) (Ctenocephalides felis),efficacy (Spodoptera frugiperda; 500 g/ha),also measured
CCS(=O)(=O)c1ccc(-n2ccc(SC(F)(F)F)c2)nc1-c1nc2cc(C(F)(F)F)ncc2n1C [Example 2],100%,90%,100%,100%,,
CCS(=O)(=O)c1ccc(-n2cc(S(C)(=O)=O)cn2)nc1-c1nc2cc(C(F)(F)F)ncc2n1C [Example 3],100%,90%,100%,100%,,
CCS(=O)(=O)c1ccc(-n2cc(C(=O)NC)cn2)nc1-c1nc2cc(C(F)(F)F)ncc2n1C [Example 4],100%,90%,100%,100%,,
CCS(=O)(=O)c1ccc(-n2cc(Cl)cn2)nc1-c1nc2cc(C(F)(F)F)ncc2n1C [Example 6],,,,95%,,efficacy (Spodoptera frugiperda; 100 g/ha): 100%
CCS(=O)(=O)c1ccc(-n2ccc(Cl)n2)nc1-c1nc2cc(C(F)(F)F)ncc2n1C [Example 9],100%,,,,,efficacy (Spodoptera frugiperda; 100 g/ha): 83%
CCS(=O)(=O)c1ccc(-n2ccc(COC)n2)nc1-c1nc2cc(C(F)(F)F)ncc2n1C [Example 10],,90%,100%,,,
CCS(=O)(=O)c1ccc(-n2ccc(C(=O)NC)n2)nc1-c1nc2cc(C(F)(F)F)ncc2n1C [Example 12],,90%,,,,
CCS(=O)(=O)c1ccc(-n2cc(C3CC3)cn2)nc1-c1nc2cc(C(F)(F)F)ncc2n1C [Example 13],100%,,100%,80%,100%,efficacy (kill) (Musca domestica): 100%
CCS(=O)(=O)c1ccc(-n2cnc(SC)n2)nc1-c1nc2cc(C(F)(F)F)ncc2n1C [Example 15],100%,90%,,,83%,
CCS(=O)(=O)c1ccc(-n2cc(SC)cn2)nc1-c1nc2cc(C(F)(F)F)ncc2n1C [Example 16],100%,100%,,,100%,
CCS(=O)(=O)c1ccc(-n2cc(C#N)cn2)nc1-c1nc2cc(C(F)(F)F)ncc2n1C [Example 19],100%,90%,100%,100%,100%,efficacy (kill) (Musca domestica): 100%
CCS(=O)(=O)c1ccc(-n2cccn2)nc1-c1nc2cc(C(F)(F)F)ncc2n1C [Example 21],,,,,,efficacy (Phaedon cochleariae; 20 g/ha): 83%; efficacy (Spodoptera frugiperda; 100 g/ha): 100%
CCS(=O)(=O)c1ccc(-n2ccc(NC(C)=O)n2)nc1-c1nc2cc(C(F)(F)F)ncc2n1C [Example 23],100%,90%,100%,,,
CCS(=O)(=O)c1ccc(-n2ccc(C(F)(F)F)n2)nc1-c1nc2cc(C(F)(F)F)ncc2n1C [Example 25],100%,,100%,100%,100%,efficacy (laying of fertile eggs) (Boophilus microplus): 80%
CCS(=O)(=O)c1ccc(-n2cnc(C(F)(F)F)c2)nc1-c1nc2cc(C(F)(F)F)ncc2n1C [Example 27],100%,,,95%,,
CCS(=O)(=O)c1ccc(-n2cc(F)cn2)nc1-c1nc2cc(C(F)(F)F)ncc2n1C [Example 28],,,100%,98%,,efficacy (Phaedon cochleariae; 100 g/ha): 100%; efficacy (Spodoptera frugiperda; 100 g/ha): 100%
CCS(=O)(=O)c1ccc(-n2ccc(SC)n2)nc1-c1nc2cc(C(F)(F)F)ncc2n1C [Example 29],100%,90%,,,,
CCS(=O)(=O)c1ccc(-n2ncc(C(F)(F)F)n2)nc1-c1nc2cc(C(F)(F)F)ncc2n1C [Example 30],100%,90%,100%,,100%,efficacy (laying of fertile eggs) (Boophilus microplus): 95%
CCS(=O)(=O)c1ccc(-n2ccc(S(C)(=O)=O)n2)nc1-c1nc2cc(C(F)(F)F)ncc2n1C [Example 35],100%,90%,100%,100%,,
CCS(=O)(=O)c1ccc(-n2cc(CSC)cn2)nc1-c1nc2cc(C(F)(F)F)ncc2n1C [Example 38],100%,,,,,
